Reference: US6180385A (priority 1996, dated 2001)

Target: Lb proteinase (Foot-and-mouth disease virus serotype O, UniProt P03305)
Sequence (P03305 29-201 limits assumed): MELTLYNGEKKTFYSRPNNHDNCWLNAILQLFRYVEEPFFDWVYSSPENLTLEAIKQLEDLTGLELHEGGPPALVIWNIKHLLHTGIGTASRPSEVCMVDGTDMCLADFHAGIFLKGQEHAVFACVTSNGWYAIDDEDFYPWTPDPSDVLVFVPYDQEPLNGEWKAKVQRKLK

AKVQRKLKGAGQSSPA [LVP4-1]
FMDV Lb cleavage site on the peptide (* indicates cleavage site): K*G | cleavage of peptide in the absence of SDS (controls): complete cleavage | peptide cleaved by Lb (qualitative): cleaved | cleavage of peptide by Lb after 4 min (lb proteinase, 4 min, 100 µM, pH 8): more than 80% | cleavage of peptide by Lb after 8 min (lb proteinase, 8 min, 100 µM, pH 8): about 90%
